Reference: PMC12332667, “Role of Structural Modifications in Peptidomimetic Compounds as Potential Antimicrobial Agents against Staphylococcus aureus and Streptococcus pyogenes: Balancing Bioavailability, Safety, and Antimicrobial Activity” (ACS Omega, 2025)
Values after ≈ are worked out from the molar mass of the structure shown. Non-standard residues stand in square brackets, D forms with d. Residues, ends and D or L forms follow the SMILES beside them. *: point of attachment. NHPhenethyl = c1ccc(CCN*)cc1; β3hV = CC(C)[C@H](N)CC(=O)O; Cbz = O=C(OCc1ccccc1)*

How the values were obtained:
S. schleiferi c.i. = test: MIC/MBC broth microdilution, S. schleiferi; format: cell-based, Staphylococcus schleiferi
Procedure: (§1) S. aureus (ATCC 29213),S. pyogenes (ATCC 19615),Streptococcus agalactiae (ATCC 27956),Escherichia coli (ATCC 25922),Proteus vulgaris (ATCC 6896),K. pneumoniae (ATCC 700603) andP. aeruginosa (ATCC 10145) reference strains, as well asStaphylococcus cohnii, Enterococcus faecalis, Staphylococcus schleiferi, Staphylococcus intermedius and Streptococcus mutans clinical isolates, were used to test the antibacterial activity of the peptidomimetics. Bacteria were aerobically cultured for 18 h at 37 °C in plates with sterilized brain heart infusion (BHI) broth (Sigma-Aldrich, USA) media mixed with bacteriological agar (Sigma-Aldrich, USA) using the streak plate method. After 18 h, BHI broth was inoculated to 0.5 on the McFarland scale and diluted to approximately 10^5 CFU/mL. To achieve a final stock concentration of 1024 μg/mL, the peptidomimetics were dissolved in sterile water, and 5–10% of absolute ethanol or dimethyl sulfoxide (DMSO) was added. The antibacterial activities were determined by using the standard broth microdilution method of the National Committee for Clinical Laboratory Standards. The process involved adding serially diluted peptidomimetics to consecutive wells of a 96-well microtiter plate (Brand, Germany) holding media with microorganisms. The inoculated plates treated with peptides were then placed in an incubator at 37 °C for 18 h. The MIC value was determined as the lowest concentration of peptidomimetic at which there was no obvious growth (equal or more than 90% of the untreated sample). […] The lowest concentration yielding growth in no more than 3 colonies, corresponding to at least a 99.9% kill rate, was taken as MBC. Each biological replicate included control wells with the addition of water, DMSO, and ethanol as respective solvent controls. All experiments were conducted with consistent adherence to growth and sterility controls and were performed at least in technical triplicate with three biological repeats.

S. aureus ATCC 43300 = test: MIC/MBC broth microdilution, S. aureus; format: cell-based, Staphylococcus aureus; settings: S. aureus
S. cohnii c.i. = test: MIC/MBC broth microdilution, S. cohnii; format: cell-based, Staphylococcus cohnii
Procedure: as §1

S. mutans c.i. = test: MIC/MBC broth microdilution, S. mutans; format: cell-based, Streptococcus mutans
Procedure: as §1

E. coli ATCC 25922 = test: MIC/MBC broth microdilution, E. coli; format: cell-based, Escherichia coli
Procedure: as §1

S. pyogenes ATCC 19615 = test: MIC/MBC broth microdilution, S. pyogenes; format: cell-based, Streptococcus pyogenes; settings: S. pyogenes
Procedure: as §1

fibroblasts (46BR.1N) = test: LDH cytotoxicity test, fibroblasts; format: cell-based; settings: 48 h, 50, 100 and 150 μg/mL, vs 1% Triton X-100
Procedure: (§2) In our study, we used two distinct cell types: immortalized human HaCaT keratinocytes (DKFZ, Heidelberg, Germany) and a human dermal fibroblast cell line (46BR.1N). […] Cultures were maintained in a humidified atmosphere with 5% CO2 at 37 °C in 25 cm^2 culture flasks with the medium replenished every 2 days. The condition of the cells was monitored using optical microscopy.
(§3) Cell death in immortalized human keratinocytes (HaCaT) and fibroblasts (46BR.1N) was measured by quantifying the lactate dehydrogenase (LDH) activity using a commercial kit (Roche, Switzerland). Cells were seeded in 96-well plates at a density of 5000 cells per well in DMEM high glucose medium supplemented with 10% FBS. After 24 h of incubation, the medium was replaced with serum-free medium containing various concentrations of peptidomimetics (50, 100, and 150 μg/mL). After 48 h, supernatants were collected for LDH analysis. Plate readings were taken spectrophotometrically using a 450 nm wavelength. Cell death measurements were normalized to an untreated control (0%), with 1% Triton X-100 detergent used as a positive control to induce maximum LDH release, indicating maximal cytotoxicity. Statistical significance was determined with a Mann–Whitney U test with a statistical significance p ≤ 0.05. Analysis was performed with Statistica software (Krakow, Poland) and graphs were prepared in GraphPad Prism (Boston, USA).

[1] = tested on: immortalized human keratinocytes (HaCaT); test: LDH cytotoxicity test, keratinocytes; format: cell-based; settings: 48 h, 50, 100 and 150 μg/mL, vs 1% Triton X-100
Procedure: as §2, §3

P. aeruginosa ATCC 10145 = test: MIC/MBC broth microdilution, P. aeruginosa; format: cell-based
Procedure: as §1

P. vulgaris ATCC 6896 = test: MIC/MBC broth microdilution, P. vulgaris; format: cell-based, Proteus vulgaris
Procedure: as §1

E. faecalis c.i. = test: MIC/MBC broth microdilution, E. faecalis; format: cell-based, Enterococcus faecalis
Procedure: as §1

S. agalactiae ATCC 27956 = test: MIC/MBC broth microdilution, S. agalactiae; format: cell-based, Streptococcus agalactiae; settings: S. agalactiae, water additive EtOH
Procedure: as §1

[2] = tested on: K. pneumoniae ATCC 700603; test: MIC/MBC broth microdilution, K. pneumoniae; format: cell-based
Procedure: as §1

[3] = tested on: immortalized human HaCaT keratinocytes; test: XTT cell proliferation assay, keratinocytes; format: cell-based; settings: for effect on proliferation, in words: XTT, 48 and 72 h, 0.01–150 μg/mL
Procedure: (§4) In our study, we used two distinct cell types: immortalized human HaCaT keratinocytes (DKFZ, Heidelberg, Germany) and a human dermal fibroblast cell line (46BR.1N). […] Cultures were maintained in a humidified atmosphere with 5% CO2 at 37 °C in 25 cm^2 culture flasks with the medium replenished every 2 days. The condition of the cells was monitored using optical microscopy. […] After 24 h of incubation, the medium was replaced with serum-free HG-DMEM containing appropriate concentrations of peptidomimetics. All solutions used in the experiments were prepared with double-distilled water or with the addition of ethanol under sterile conditions to ensure compatibility with the conditions of the bacteriological assay. For 72 h of incubation, half of the medium was replaced with fresh medium after 48 h, and cells were stimulated with peptides for a second time. The XTT cell proliferation assay was then performed according to the manufacturer’s instructions (Roche, Switzerland). Cells were treated with the peptides for either 48 or 72 h, followed by the addition of XTT reagent, and the plates were then incubated at 37 °C in a 5% CO2 environment for 4 h. Plate readings were taken using a standard plate reader at a wavelength of 490 nm (OD = 490 nm). […] Statistical significance was determined with a Mann–Whitney U test with statistical significance p ≤ 0.05. Analysis was performed with Statistica software, and graphs were prepared in GraphPad Prism.

[4] = tested on: human dermal fibroblast cell line (46BR.1N); test: XTT cell proliferation assay, fibroblasts; format: cell-based; settings: for effect on proliferation, in words: XTT, 48 and 72 h, 0.01–150 μg/mL
Procedure: as §4

[5] = up to 150 μg/mL, A-193 and A-179 after 48 h

MIC (S. schleiferi c.i.; water additive EtOH) [µg/mL] | MIC (S. aureus ATCC 43300; water additive DMSO) [µg/mL] | MIC (S. mutans c.i.; water additive EtOH) [µg/mL] | MIC (E. coli ATCC 25922; water additive DMSO) [µg/mL] | MIC (E. coli ATCC 25922; water additive EtOH) [µg/mL] | MIC (P. aeruginosa ATCC 10145; water additive DMSO) [µg/mL] | MIC (P. aeruginosa ATCC 10145; water additive EtOH) [µg/mL] | MIC (P. vulgaris ATCC 6896; water additive DMSO) [µg/mL] | MIC (P. vulgaris ATCC 6896; water additive EtOH) [µg/mL] | MIC (E. faecalis c.i.; water additive DMSO) [µg/mL] | MIC (E. faecalis c.i.; water additive EtOH) [µg/mL] | MIC ([2]; water additive DMSO) [µg/mL] | MIC ([2]; water additive EtOH) [µg/mL] | Compound | MBC (S. pyogenes ATCC 19615; H2O) [µg/mL] | MBC (S. pyogenes ATCC 19615; water additive EtOH) [µg/mL] | cytotoxicity (LDH) [1] | MBC (E. faecalis c.i.; water additive EtOH) [µg/mL] | effect on proliferation, in words [3] | effect on proliferation, in words [4] | other results
> 512 | 512 (≈ 803 µM) | > 512 | > 512 | > 512 | > 512 | > 512 | > 512 | > 512 | 512 (≈ 803 µM) | 512 (≈ 803 µM) | > 512 | > 512 | CC(C)C[C@H](NC(=O)[C@H](CCCNC(=N)N)NC(=O)OCc1ccccc1)C(=O)N[C@H](CC(=O)NCCc1ccccc1)C(C)C [Compound A-152] (Cbz-Arg-Leu-[β3hV]-NHPhenethyl) | 256 (≈ 401 µM) | 126 (≈ 198 µM) | ≤ 50% | 512 (≈ 803 µM) | pro-proliferating effect at lower concentrations followed by an antiproliferative effect at higher concentrations | pro-proliferating effect at lower concentrations followed by an antiproliferative effect at higher concentrations | MIC (S. schleiferi c.i.; water additive DMSO): > 512 µg/mL; MBC (S. aureus ATCC 43300; H2O): 256 µg/mL (≈ 401 µM); MBC (S. aureus ATCC 43300; water additive DMSO): 512 µg/mL (≈ 803 µM); MBC (S. cohnii c.i.; water additive DMSO): 512 µg/mL (≈ 803 µM); MBC (S. cohnii c.i.; water additive EtOH): 512 µg/mL (≈ 803 µM); MIC (S. mutans c.i.; water additive DMSO): > 512 µg/mL; MBC (S. pyogenes ATCC 19615; water additive DMSO): 256 µg/mL (≈ 401 µM); cytotoxicity (LDH) (fibroblasts (46BR.1N)): ≤ 50%; MBC (E. faecalis c.i.; water additive DMSO): > 512 µg/mL; MBC (S. agalactiae ATCC 27956): 256 µg/mL (≈ 401 µM)
16 (≈ 21.7 µM) | 32 (≈ 43.5 µM) | 32 (≈ 43.5 µM) | > 512 | 512 (≈ 696 µM) | 256 (≈ 348 µM) | 256 (≈ 348 µM) | > 512 | > 512 | > 512 | 256 (≈ 348 µM) | > 512 | > 512 | CC(C)[C@@H](CNC(=O)C(=Cc1ccccc1)c1ccccc1)NC(=O)[C@H](Cc1c[nH]cn1)NC(=O)[C@H](CCCNC(=N)N)NC(=O)OCc1ccccc1 [Compound A-176] | 32 (≈ 43.5 µM) | 32 (≈ 43.5 µM) | exceeding 50% | 512 (≈ 696 µM) | negative impact | negative impact | MIC (S. schleiferi c.i.; H2O): 16 µg/mL (≈ 21.7 µM); MBC (S. schleiferi c.i.; water additive EtOH): 32 µg/mL (≈ 43.5 µM); MIC (S. aureus ATCC 43300; H2O): 32 µg/mL (≈ 43.5 µM); MIC (S. aureus ATCC 43300; water additive EtOH): 32 µg/mL (≈ 43.5 µM); MIC (S. mutans c.i.; H2O): 32 µg/mL (≈ 43.5 µM); MBC (E. coli ATCC 25922; H2O): 256 µg/mL (≈ 348 µM); MIC (E. coli ATCC 25922; H2O): 256 µg/mL (≈ 348 µM); MIC (S. pyogenes ATCC 19615; H2O): 16 µg/mL (≈ 21.7 µM); MIC (S. pyogenes ATCC 19615; water additive DMSO): 16 µg/mL (≈ 21.7 µM); MIC (S. pyogenes ATCC 19615; water additive EtOH): 16 µg/mL (≈ 21.7 µM); MIC (P. aeruginosa ATCC 10145; H2O): 256 µg/mL (≈ 348 µM); MBC (P. aeruginosa ATCC 10145; water additive DMSO): 256 µg/mL (≈ 348 µM); MBC (P. aeruginosa ATCC 10145; water additive EtOH): 256 µg/mL (≈ 348 µM); MIC (P. vulgaris ATCC 6896; H2O): > 512 µg/mL; MBC (E. faecalis c.i.; H2O): 512 µg/mL (≈ 696 µM); MIC (E. faecalis c.i.; H2O): 512 µg/mL (≈ 696 µM); MIC ([2]; H2O): > 512 µg/mL; antiproliferative effect (decrease vs control) [3, 5]: up to 50%; antiproliferative effect (decrease vs control) [4, 5]: up to 50%
